Measurements from patent US20250170140A1, “PHARMACEUTICAL COMPOSITION FOR PREVENTING OR TREATING CANCER COMPRISING CARNITINE ACYLCARNITINE CARRIER INHIBITOR AND PEROXISOMAL BETA OXIDATION INHIBITOR” (priority 2021, published 2025).
Like-named read-outs stand apart in the source and are kept apart here.

Experiments:
Type in all cases: cell-based
Hep-3B cells = experiment: SRB assay, liver cancer cell line Hep-3B
Experimental: (§1) As a comparison, omeprazole (KN510) and trimetazidine (KN713), a 3-ketoacyl CoA thiolase inhibitor, were co-treated. […] After cell inoculation, 96-well cell culture plates were incubated for 24 hours before the addition of experimental drugs. […] The cells were then incubated in a CO2 incubator for 48 hours, after which the assay was terminated by the addition of cold TCA. Cells were fixed in situ by gently adding 50 μl of cold 50% (w/v) TCA (final concentration: 10% TCA) and incubated at 4° C. for 60 min. The supernatant was discarded, and the plate was washed five times with distilled water and air dried. Sulforhodamine B (SRB) solution (100 μl) of 0.4% (w/v) in 1% acetic acid was added to each well, and the plate was left at room temperature for 10 min. After staining, unbound dye was removed by washing five times with 1% acetic acid, and the plate was air-dried. The bound dye was then solubilized with 10 mM trizma base, and the absorbance was recorded at 515 nm using an automated plate reader. […] The predicted synergistic activity of a combination of the present invention can be calculated using the Colby Equation in Equation 1 (S.R. Colby, Weeds, 1967, pp. 15, 20-22): In the present invention, the actual measure of anti-cancer activity of the combination treatment was the inhibition rate of cancer cell growth (%), and the predicted value (E) of the combination treatment was measured by substituting it into the above Colby Equation.

SK-OV-3 cells = experiment: SRB assay, ovarian cancer cells SK-OV-3
Experimental: as §1

MDA-MB-231 cells = experiment: SRB assay, breast cancer cell line MDA-MB-231
Experimental: as §1

PC-3 cells = experiment: SRB assay, prostate cancer cells PC-3
Experimental: as §1

U251 cells = experiment: SRB assay, glioblastoma cell line U251
Experimental: as §1

K562 cells = experiment: SRB assay, leukemia cell line K562
Experimental: as §1

MIA PaCa-2 = experiment: SRB assay, cancer cell growth, pancreatic cancer cell line MIA PaCa-2
Experimental: as §1, with “20-22): α and β are the measured anti-cancer activity of each compound alone, and E is the predicted anti-cancer activity of a mixture of α and β as a prediction.” for “20-22):”

SK-MEL-5 = experiment: SRB assay, melanoma cell line SK-MEL-5
Experimental: as §1

OVCAR-8 cells = experiment: SRB assay, ovarian cancer cells OVCAR-8
Experimental: as §1

H1975 cells = experiment: SRB assay, lung cancer cells H1975
Experimental: as §1

PANC-1 cells = experiment: SRB assay, pancreatic cancer cell line PANC-1
Experimental: as §1

ACHN cells = experiment: SRB assay, renal cell carcinoma cell line ACHN
Experimental: as §1

UACC-62 cells = experiment: SRB assay, melanoma cell line UACC-62
Experimental: as §1

[1] = Homo sapiens, KN510 100 μM, read-out: Inhibition rate of cancer cell growth (%) (Actual value)
[2] = Homo sapiens, KN510 200 μM, read-out: Inhibition rate of cancer cell growth (%) (Actual value)

In the case of `COc1ccc2[nH]c([S+]([O-])Cc3ncc(C)c(OC)c3C)nc2c1` (stereo not drawn) [KN510, omeprazole], the inhibition at 100 µM (Hep-3B cells; Homo sapiens, Hep3B, KN510 100 μM, read-out: Inhibition rate of cancer cell growth (%) (Actual value)) is reported as 15.1%, the inhibition at 200 µM (Hep-3B cells; Homo sapiens, Hep3B, KN510 200 μM, read-out: Inhibition rate of cancer cell growth (%) (Actual value)) is reported as 40.1% and the “Cancer cell growth rate Average (%)” value (Hep-3B cells; KN510 100 μM) is reported as 84.95%. For the same molecule, the “Cancer cell growth rate Average (%)” value (Hep-3B cells; KN510 200 μM) was 59.89%, the inhibition at 100 µM (SK-OV-3 cells; [1]) was 11.5% and the inhibition at 200 µM (SK-OV-3 cells; [2]) was 59.8%. The “Cancer cell growth rate Average (%)” value (SK-OV-3 cells; KN510 100 μM) was 88.53%, the “Cancer cell growth rate Average (%)” value (SK-OV-3 cells; KN510 200 μM) was 40.18% and the inhibition at 100 µM (MDA-MB-231 cells; [1]) was 29.7%. The inhibition at 200 µM (MDA-MB-231 cells; [2]) was 71.9%, the “Cancer cell growth rate Average (%)” value (MDA-MB-231 cells; KN510 100 μM) was 70.29% and the “Cancer cell growth rate Average (%)” value (MDA-MB-231 cells; KN510 200 μM) was 28.13%. The inhibition at 100 µM (PC-3 cells; [1]) was 46.6%, the inhibition at 200 µM (PC-3 cells; [2]) was 66.2% and the “Cancer cell growth rate Average (%)” value (PC-3 cells; KN510 100 μM) was 53.42%. The “Cancer cell growth rate Average (%)” value (PC-3 cells; KN510 200 μM) was 33.81%, the inhibition at 100 µM (U251 cells; Homo sapiens, U-251, KN510 100 μM, read-out: Inhibition rate of cancer cell growth (%) (Actual value)) was 26.5% and the inhibition at 200 µM (U251 cells; Homo sapiens, U-251, KN510 200 μM, read-out: Inhibition rate of cancer cell growth (%) (Actual value)) was 44.9%. For the same molecule, the “Cancer cell growth rate Average (%)” value (U251 cells; KN510 100 μM) was 73.51%, the “Cancer cell growth rate Average (%)” value (U251 cells; KN510 200 μM) was 55.11% and the inhibition at 100 µM (K562 cells; [1]) was 44.8%. The inhibition at 200 µM (K562 cells; [2]) was 73%, the “Cancer cell growth rate Average (%)” value (K562 cells; KN510 100 μM) was 55.18% and the “Cancer cell growth rate Average (%)” value (K562 cells; KN510 200 μM) was 27.01%. The inhibition at 100 µM (MIA PaCa-2; Homo sapiens, MIA PaCa-2, MIA PaCa-2 (Example 11), KN510 100 μM, read-out: Inhibition rate of cancer cell growth (%) (Actual value)) was 30.2%, the inhibition at 200 µM (MIA PaCa-2; Homo sapiens, MIA PaCa-2, MIA PaCa-2 (Example 11), KN510 200 μM, read-out: Inhibition rate of cancer cell growth (%) (Actual value)) was 78.2% and the inhibition at 200 µM (MIA PaCa-2; Homo sapiens, MIA PaCa-2, MIA PaCa-2, Example 1-3, Table 4, KN510 200 μM, read-out: Inhibition rate of cancer cell growth (%) (Actual value)) was 74.1%. The GI50 (MIA PaCa-2; Homo sapiens, MIA PaCa-2, 48 hours, read-out: GI50 (Half maximal growth inhibition concentration)) was 117 µM, the “Cancer cell growth rate Average (%)” value (MIA PaCa-2; MIA PaCa-2 (Example 11), KN510 100 μM) was 69.78% and the “Cancer cell growth rate Average (%)” value (MIA PaCa-2; MIA PaCa-2 (Example 11), KN510 200 μM) was 21.75%. For the same molecule, the “Cancer cell growth rate Average (%)” value (MIA PaCa-2; MIA PaCa-2, Conc. 10^−3M, Table 1) was −17.07%, the “Cancer cell growth rate Average (%)” value (MIA PaCa-2; MIA PaCa-2, Conc. 10^−4M, Table 1) was 68.78% and the “Cancer cell growth rate Average (%)” value (MIA PaCa-2; MIA PaCa-2, Conc. 10^−5M, Table 1) was 94.56%. The “Cancer cell growth rate Average (%)” value (MIA PaCa-2; MIA PaCa-2, Conc. 10^−6M, Table 1) was 93.66%, the “Cancer cell growth rate Average (%)” value (MIA PaCa-2; MIA PaCa-2, Conc. 10^−7M, Table 1) was 97.84% and the “Cancer cell growth rate Average (%)” value (MIA PaCa-2; MIA PaCa-2, Conc. 10^−8M, Table 1) was 101.17%. The “Cancer cell growth rate Average (%)” value (MIA PaCa-2; MIA PaCa-2, Example 1-2, Table 2, KN510 200 μM) was 25.89%, the “Cancer cell growth rate Average (%)” value (MIA PaCa-2; MIA PaCa-2, comparative example, Table 3, KN510 100 μM) was 69.73% and the “Cancer cell growth rate Average (%)” value (MIA PaCa-2; MIA PaCa-2, comparative example, Table 3, KN510 200 μM) was 35.32%. The inhibition at 100 µM (SK-MEL-5; [1]) was 34.6%, the inhibition at 200 µM (SK-MEL-5; [2]) was 53.9% and the “Cancer cell growth rate Average (%)” value (SK-MEL-5; KN510 100 μM) was 65.42%. The “Cancer cell growth rate Average (%)” value (SK-MEL-5; KN510 200 μM) was 46.11%, the inhibition at 100 µM (OVCAR-8 cells; [1]) was 44.5% and the inhibition at 200 µM (OVCAR-8 cells; [2]) was 63.3%. The “Cancer cell growth rate Average (%)” value (OVCAR-8 cells; KN510 100 μM) was 55.49%, the “Cancer cell growth rate Average (%)” value (OVCAR-8 cells; KN510 200 μM) was 36.66% and the inhibition at 100 µM (H1975 cells; Homo sapiens, NCI-H1975, KN510 100 μM, read-out: Inhibition rate of cancer cell growth (%) (Actual value)) was 15.5%. The inhibition at 200 µM (H1975 cells; Homo sapiens, NCI-H1975, KN510 200 μM, read-out: Inhibition rate of cancer cell growth (%) (Actual value)) was 56.8%, the “Cancer cell growth rate Average (%)” value (H1975 cells; KN510 100 μM) was 84.54% and the “Cancer cell growth rate Average (%)” value (H1975 cells; KN510 200 μM) was 43.18%. The inhibition at 100 µM (PANC-1 cells; [1]) was 55.5%, the inhibition at 200 µM (PANC-1 cells; [2]) was 89% and the “Cancer cell growth rate Average (%)” value (PANC-1 cells; KN510 100 μM) was 44.47%. For the same molecule, the “Cancer cell growth rate Average (%)” value (PANC-1 cells; KN510 200 μM) was 10.96%, the inhibition at 100 µM (ACHN cells; [1]) was 38.9% and the inhibition at 200 µM (ACHN cells; [2]) was 80.1%. The “Cancer cell growth rate Average (%)” value (ACHN cells; KN510 100 μM) was 61.12%, the “Cancer cell growth rate Average (%)” value (ACHN cells; KN510 200 μM) was 19.93% and the inhibition at 100 µM (UACC-62 cells; [1]) was 53.4%. The inhibition at 200 µM (UACC-62 cells; [2]) was 96.4%, the “Cancer cell growth rate Average (%)” value (UACC-62 cells; KN510 100 μM) was 46.56% and the “Cancer cell growth rate Average (%)” value (UACC-62 cells; KN510 200 μM) was 3.59%.
